Values of other authors in US12478679B2, “Pharmaceutical carrier for active substances and a pharmaceutical composition containing said carrier” (BIOTTS S A, priority 2019, dated 2025).
Where two headings read alike, the source gives them in different places.

Columns and labels:
[1] = rats
[2] = mice

COc1cc(/C=C/C(=O)CC(=O)/C=C/c2ccc(O)c(OC)c2)ccc1O [curcumin]
ED50, average effective dose in the carrageenan test [1]: 48 mg/kg
ED50, average effective dose in the carrageenan test ([2]; first series): 100.2 mg/kg
ED50 ([2]; series of turmeric extracts and curcumin alone): 8.7 mg/kg
